Reference: US10253039B2, “Inhibitors of bacterial DNA gyrase with efficacy against gram-negative bacteria” (priority 2014, dated 2019)
≈ marks a conversion by molar mass, not a printed value.

The molecules below were run on E. coli BW25113 (assay: MIC, microdilution in 96-well plates). Conditions: Escherichia coli, BW25113, B: E. coli BW25113; read-out: MIC.
Format: cell-based
How it was run: (§1)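 Broth microdilution per CLSI guidance: each strain was diluted 1:10000 from a growing subculture into Luria-Bertani medium, and compound was serially diluted 2-fold in triplicate alongside a DMSO column. Plates were shaken at 37° C. for 16-18 hours; MIC is the lowest concentration showing no visible turbidity.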
`O=S(=O)(N[C@@H]1CCN(Cc2ccc(-c3cncnc3)cc2)C1)c1cccc(C(F)(F)F)c1` [Compound 58] was tested, and the MIC was > 8 µg/mL. With `O=S(=O)(N[C@@H]1CCN(Cc2ccc(OC3CCOCC3)cc2)C1)c1cccc(C(F)(F)F)c1` [Compound 38] the MIC was > 8 µg/mL. `O=S(=O)(N[C@@H]1CCN(Cc2ccc(-c3ccccc3)cc2)C1)c1cccc2cccnc12` [Compound 105] was tested, and the MIC was > 8 µg/mL. With `O=S(=O)(N[C@@H]1CCN(Cc2ccc(-c3ccccc3)cc2)C1)c1cc(F)cc(C(F)(F)F)c1` [Compound 71] the MIC was > 8 µg/mL. `O=C1CCCN1c1ccc(CN2CC[C@@H](NS(=O)(=O)c3cccc(OC(F)(F)F)c3)C2)cc1` [Compound 100] was tested, and the MIC was > 8 µg/mL.

What follows are molecules tested on Edwardsiella tarda (assay: MIC, microdilution in 96-well plates). Conditions: D: Edwardsiella tarda.
Format: cell-based
How it was run: as §1
For `O=S(=O)(N[C@@H]1CCN(Cc2ccc(-c3cncnc3)cc2)C1)c1cccc(C(F)(F)F)c1` [Compound 58], the MIC was > 8 µg/mL. `O=S(=O)(N[C@@H]1CCN(Cc2ccc(OC3CCOCC3)cc2)C1)c1cccc(C(F)(F)F)c1` [Compound 38] was tested, and the MIC was > 8 µg/mL. `O=S(=O)(N[C@@H]1CCN(Cc2ccc(-c3ccccc3)cc2)C1)c1cccc2cccnc12` [Compound 105] was tested, and the MIC was > 8 µg/mL. In the case of `O=S(=O)(N[C@@H]1CCN(Cc2ccc(-c3ccccc3)cc2)C1)c1cc(F)cc(C(F)(F)F)c1` [Compound 71], the MIC is reported as > 8 µg/mL. With `O=C1CCCN1c1ccc(CN2CC[C@@H](NS(=O)(=O)c3cccc(OC(F)(F)F)c3)C2)cc1` [Compound 100] the MIC was > 8 µg/mL.

Each molecule was assayed on E. coli JW5503 (deltolC) (assay: MIC, 20-strain panel). Conditions: Escherichia coli, C: E. coli JW5503 (deltolC).
Format: cell-based
How it was run: as §1
In the case of `O=S(=O)(N[C@@H]1CCN(Cc2ccc(-c3cncnc3)cc2)C1)c1cccc(C(F)(F)F)c1` [Compound 58], the MIC is reported as 8 µg/mL (≈ 17.3 µM). Molecule `O=S(=O)(N[C@@H]1CCN(Cc2ccc(OC3CCOCC3)cc2)C1)c1cccc(C(F)(F)F)c1` [Compound 38] has an MIC of 1 µg/mL (≈ 2.06 µM). `O=S(=O)(N[C@@H]1CCN(Cc2ccc(-c3ccccc3)cc2)C1)c1cccc2cccnc12` [Compound 105] was tested, and the MIC was 0.125 µg/mL (≈ 0.282 µM). For `O=S(=O)(N[C@@H]1CCN(Cc2ccc(-c3ccccc3)cc2)C1)c1cc(F)cc(C(F)(F)F)c1` [Compound 71], the MIC was 4 µg/mL (≈ 8.36 µM). For `O=C1CCCN1c1ccc(CN2CC[C@@H](NS(=O)(=O)c3cccc(OC(F)(F)F)c3)C2)cc1` [Compound 100], the MIC was 2 µg/mL (≈ 4.14 µM).

Each molecule was assayed on E. coli MG1655 (assay: MIC, 20-strain panel). Conditions: Escherichia coli, MG1655, A: E. coli MG1655; read-out: MIC.
Format: cell-based
How it was run: as §1
With `O=S(=O)(N[C@@H]1CCN(Cc2ccc(-c3cncnc3)cc2)C1)c1cccc(C(F)(F)F)c1` [Compound 58] the MIC was > 8 µg/mL. With `O=S(=O)(N[C@@H]1CCN(Cc2ccc(OC3CCOCC3)cc2)C1)c1cccc(C(F)(F)F)c1` [Compound 38] the MIC was > 8 µg/mL. With `O=S(=O)(N[C@@H]1CCN(Cc2ccc(-c3ccccc3)cc2)C1)c1cccc2cccnc12` [Compound 105] the MIC was > 8 µg/mL. `O=S(=O)(N[C@@H]1CCN(Cc2ccc(-c3ccccc3)cc2)C1)c1cc(F)cc(C(F)(F)F)c1` [Compound 71] was tested, and the MIC was > 8 µg/mL. For `O=C1CCCN1c1ccc(CN2CC[C@@H](NS(=O)(=O)c3cccc(OC(F)(F)F)c3)C2)cc1` [Compound 100], the MIC was > 8 µg/mL.

What follows are molecules tested on Klebsiella pneumoniae subsp. pneumoniae (assay: MIC, 20-strain panel). Conditions: E: Klebsiella pneumoniae subsp. pneumoniae.
Format: cell-based
How it was run: as §1
`O=S(=O)(N[C@@H]1CCN(Cc2ccc(-c3cncnc3)cc2)C1)c1cccc(C(F)(F)F)c1` [Compound 58] was tested, and the MIC was > 8 µg/mL. For `O=S(=O)(N[C@@H]1CCN(Cc2ccc(OC3CCOCC3)cc2)C1)c1cccc(C(F)(F)F)c1` [Compound 38], the MIC was > 8 µg/mL. In the case of `O=S(=O)(N[C@@H]1CCN(Cc2ccc(-c3ccccc3)cc2)C1)c1cccc2cccnc12` [Compound 105], the MIC is reported as > 8 µg/mL. `O=S(=O)(N[C@@H]1CCN(Cc2ccc(-c3ccccc3)cc2)C1)c1cc(F)cc(C(F)(F)F)c1` [Compound 71] was tested, and the MIC was > 8 µg/mL. With `O=C1CCCN1c1ccc(CN2CC[C@@H](NS(=O)(=O)c3cccc(OC(F)(F)F)c3)C2)cc1` [Compound 100] the MIC was > 8 µg/mL.

These molecules were tested on Salmonella enterica subsp. enterica typhimurium (assay: MIC, 20-strain panel). Conditions: F: Salmonella enterica subsp. enterica Typhimurium.
Format: cell-based
How it was run: as §1
`O=S(=O)(N[C@@H]1CCN(Cc2ccc(-c3cncnc3)cc2)C1)c1cccc(C(F)(F)F)c1` [Compound 58] was tested, and the MIC was > 8 µg/mL. With `O=S(=O)(N[C@@H]1CCN(Cc2ccc(OC3CCOCC3)cc2)C1)c1cccc(C(F)(F)F)c1` [Compound 38] the MIC was > 8 µg/mL. `O=S(=O)(N[C@@H]1CCN(Cc2ccc(-c3ccccc3)cc2)C1)c1cccc2cccnc12` [Compound 105] showed an MIC of 8 µg/mL (≈ 18 µM). In the case of `O=S(=O)(N[C@@H]1CCN(Cc2ccc(-c3ccccc3)cc2)C1)c1cc(F)cc(C(F)(F)F)c1` [Compound 71], the MIC is reported as > 8 µg/mL. In the case of `O=C1CCCN1c1ccc(CN2CC[C@@H](NS(=O)(=O)c3cccc(OC(F)(F)F)c3)C2)cc1` [Compound 100], the MIC is reported as > 8 µg/mL.

What follows are molecules tested on Shigella flexneri (assay: MIC, 20-strain panel). Conditions: G: Shigella flexneri.
Format: cell-based
How it was run: as §1
With `O=S(=O)(N[C@@H]1CCN(Cc2ccc(-c3cncnc3)cc2)C1)c1cccc(C(F)(F)F)c1` [Compound 58] the MIC was > 8 µg/mL. `O=S(=O)(N[C@@H]1CCN(Cc2ccc(OC3CCOCC3)cc2)C1)c1cccc(C(F)(F)F)c1` [Compound 38] was tested, and the MIC was > 8 µg/mL. With `O=S(=O)(N[C@@H]1CCN(Cc2ccc(-c3ccccc3)cc2)C1)c1cccc2cccnc12` [Compound 105] the MIC was > 8 µg/mL. In the case of `O=S(=O)(N[C@@H]1CCN(Cc2ccc(-c3ccccc3)cc2)C1)c1cc(F)cc(C(F)(F)F)c1` [Compound 71], the MIC is reported as > 8 µg/mL. For `O=C1CCCN1c1ccc(CN2CC[C@@H](NS(=O)(=O)c3cccc(OC(F)(F)F)c3)C2)cc1` [Compound 100], the MIC was > 8 µg/mL.

Each molecule was assayed on Staphylococcus aureus subsp. aureus (assay: MIC, 20-strain panel). Conditions: H: Staphylococcus aureus subsp. aureus, read-out: MIC.
Format: cell-based
How it was run: as §1
With `O=S(=O)(N[C@@H]1CCN(Cc2ccc(-c3cncnc3)cc2)C1)c1cccc(C(F)(F)F)c1` [Compound 58] the MIC was > 8 µg/mL. With `O=S(=O)(N[C@@H]1CCN(Cc2ccc(OC3CCOCC3)cc2)C1)c1cccc(C(F)(F)F)c1` [Compound 38] the MIC was > 8 µg/mL. With `O=S(=O)(N[C@@H]1CCN(Cc2ccc(-c3ccccc3)cc2)C1)c1cccc2cccnc12` [Compound 105] the MIC was > 8 µg/mL. `O=S(=O)(N[C@@H]1CCN(Cc2ccc(-c3ccccc3)cc2)C1)c1cc(F)cc(C(F)(F)F)c1` [Compound 71] was tested, and the MIC was > 8 µg/mL. `O=C1CCCN1c1ccc(CN2CC[C@@H](NS(=O)(=O)c3cccc(OC(F)(F)F)c3)C2)cc1` [Compound 100] was tested, and the MIC was > 8 µg/mL.

These molecules were tested on Staphylococcus epidermidis (assay: MIC, 20-strain panel). Conditions: not given.
Format: cell-based
How it was run: as §1
In the case of `O=S(=O)(N[C@@H]1CCN(Cc2ccc(-c3cncnc3)cc2)C1)c1cccc(C(F)(F)F)c1` [Compound 58], the MIC is reported as > 8 µg/mL. With `O=S(=O)(N[C@@H]1CCN(Cc2ccc(OC3CCOCC3)cc2)C1)c1cccc(C(F)(F)F)c1` [Compound 38] the MIC was > 8 µg/mL. `O=S(=O)(N[C@@H]1CCN(Cc2ccc(-c3ccccc3)cc2)C1)c1cccc2cccnc12` [Compound 105] was tested, and the MIC was > 8 µg/mL. In the case of `O=S(=O)(N[C@@H]1CCN(Cc2ccc(-c3ccccc3)cc2)C1)c1cc(F)cc(C(F)(F)F)c1` [Compound 71], the MIC is reported as > 8 µg/mL. In the case of `O=C1CCCN1c1ccc(CN2CC[C@@H](NS(=O)(=O)c3cccc(OC(F)(F)F)c3)C2)cc1` [Compound 100], the MIC is reported as > 8 µg/mL.

These molecules were tested on Staphylococcus saprophyticus subsp. saprophyticus (assay: MIC, 20-strain panel). Conditions: not given.
Format: cell-based
How it was run: as §1
In the case of `O=S(=O)(N[C@@H]1CCN(Cc2ccc(-c3cncnc3)cc2)C1)c1cccc(C(F)(F)F)c1` [Compound 58], the MIC is reported as > 8 µg/mL. For `O=S(=O)(N[C@@H]1CCN(Cc2ccc(OC3CCOCC3)cc2)C1)c1cccc(C(F)(F)F)c1` [Compound 38], the MIC was > 8 µg/mL. In the case of `O=S(=O)(N[C@@H]1CCN(Cc2ccc(-c3ccccc3)cc2)C1)c1cccc2cccnc12` [Compound 105], the MIC is reported as > 8 µg/mL. `O=S(=O)(N[C@@H]1CCN(Cc2ccc(-c3ccccc3)cc2)C1)c1cc(F)cc(C(F)(F)F)c1` [Compound 71] was tested, and the MIC was > 8 µg/mL. In the case of `O=C1CCCN1c1ccc(CN2CC[C@@H](NS(=O)(=O)c3cccc(OC(F)(F)F)c3)C2)cc1` [Compound 100], the MIC is reported as > 8 µg/mL.

The molecules below were run on Streptococcus agalactiae (assay: MIC, 20-strain panel). Conditions: not given.
Format: cell-based
How it was run: as §1
`O=S(=O)(N[C@@H]1CCN(Cc2ccc(-c3cncnc3)cc2)C1)c1cccc(C(F)(F)F)c1` [Compound 58] was tested, and the MIC was > 8 µg/mL. `O=S(=O)(N[C@@H]1CCN(Cc2ccc(OC3CCOCC3)cc2)C1)c1cccc(C(F)(F)F)c1` [Compound 38] was tested, and the MIC was > 8 µg/mL. `O=S(=O)(N[C@@H]1CCN(Cc2ccc(-c3ccccc3)cc2)C1)c1cccc2cccnc12` [Compound 105] was tested, and the MIC was > 8 µg/mL. For `O=S(=O)(N[C@@H]1CCN(Cc2ccc(-c3ccccc3)cc2)C1)c1cc(F)cc(C(F)(F)F)c1` [Compound 71], the MIC was > 8 µg/mL. `O=C1CCCN1c1ccc(CN2CC[C@@H](NS(=O)(=O)c3cccc(OC(F)(F)F)c3)C2)cc1` [Compound 100] was tested, and the MIC was > 8 µg/mL.

These molecules were tested on Streptococcus pyogenes (assay: MIC, 20-strain panel). Conditions: not given.
Format: cell-based
How it was run: as §1
In the case of `O=S(=O)(N[C@@H]1CCN(Cc2ccc(-c3cncnc3)cc2)C1)c1cccc(C(F)(F)F)c1` [Compound 58], the MIC is reported as > 8 µg/mL. In the case of `O=S(=O)(N[C@@H]1CCN(Cc2ccc(OC3CCOCC3)cc2)C1)c1cccc(C(F)(F)F)c1` [Compound 38], the MIC is reported as > 8 µg/mL. For `O=S(=O)(N[C@@H]1CCN(Cc2ccc(-c3ccccc3)cc2)C1)c1cccc2cccnc12` [Compound 105], the MIC was > 8 µg/mL. `O=S(=O)(N[C@@H]1CCN(Cc2ccc(-c3ccccc3)cc2)C1)c1cc(F)cc(C(F)(F)F)c1` [Compound 71] showed an MIC of 8 µg/mL (≈ 16.7 µM). With `O=C1CCCN1c1ccc(CN2CC[C@@H](NS(=O)(=O)c3cccc(OC(F)(F)F)c3)C2)cc1` [Compound 100] the MIC was > 8 µg/mL.
